Results taken from patent US20110213025A1, “Catheter Lock Solutions Utilizing Tocopherol and Mid-Chain Fatty Acids” (ProviFlo, LLC, priority 2009, published 2011).

Test: saturation point of dodecanoic acid in the liquid lock components at room temperature
Assay type: physicochemical
Conditions: without heating, soluble in octanoic acid, decanoic and tocopherol, weight/volume
Excerpt: In a fifth aspect of the present invention, a hydrophobic antimicrobial catheter lock solution includes alpha-tocopherol, in a concentration of 0% to 50% by volume/volume and mid-chain fatty acids. The fatty acids may include any combination of octanoic acid (0% to 25% volume/volume), decanoic acid (0% to 12.5% volume/volume), and/or dodecanoic acid (0% to 12.5% weight/volume). The combined formula after dissolving and mixing the chosen mid-chain fatty acid(s) is adjusted to a final volume with the alpha-tocopherol so that the solution has a viscosity greater than about 3 mPa·s. The lock has a viscosity in the range of about 3-5 mPa·s. Dodecanoic acid is a solid soluble in octanoic acid, decanoic and tocopherol. Concentrations of dodecanoic acid of less than about 25% dissolve readily without heating (i.e. 25% is approximately the saturation point of dodecanoic acid at room temperature). Optimal concentrations are most easily achieved by dissolution of dodecanoic acid in octanoic acid prior to adding the tocopherol. Of course, it is also possible to mix any or all of the liquid ingredients (i.e. octanoic acid and/or decanoic acid and/or tocopherol) together first and secondarily dissolve the dodecanoic acid. Alternatively, dodecanoic acid could be mixed with any of the liquids and the remaining liquid components added depending on the concentration of dodecanoic acid. […]

saturation point of dodecanoic acid: about 25%
Structure (SMILES): CCCCCCCCCCCC(=O)O [dodecanoic acid]
